Like-named read-outs stand apart in the source and are kept apart here.
Tests used:
Assay in all cases: Kinase selectivity, scanMAX Kinase assay panel (DiscoverX), % control at 1 uM
Format in all cases: binding
[1] = molecular target: T1, scanMAX Kinase assay panel (Homo sapiens, UniProt Q9NRH2); settings: SNRK; 1 uM; read-out: Percent Control (%)
T1 construct: purchased DiscoverX
T1 sequence (Q9NRH2 1-765): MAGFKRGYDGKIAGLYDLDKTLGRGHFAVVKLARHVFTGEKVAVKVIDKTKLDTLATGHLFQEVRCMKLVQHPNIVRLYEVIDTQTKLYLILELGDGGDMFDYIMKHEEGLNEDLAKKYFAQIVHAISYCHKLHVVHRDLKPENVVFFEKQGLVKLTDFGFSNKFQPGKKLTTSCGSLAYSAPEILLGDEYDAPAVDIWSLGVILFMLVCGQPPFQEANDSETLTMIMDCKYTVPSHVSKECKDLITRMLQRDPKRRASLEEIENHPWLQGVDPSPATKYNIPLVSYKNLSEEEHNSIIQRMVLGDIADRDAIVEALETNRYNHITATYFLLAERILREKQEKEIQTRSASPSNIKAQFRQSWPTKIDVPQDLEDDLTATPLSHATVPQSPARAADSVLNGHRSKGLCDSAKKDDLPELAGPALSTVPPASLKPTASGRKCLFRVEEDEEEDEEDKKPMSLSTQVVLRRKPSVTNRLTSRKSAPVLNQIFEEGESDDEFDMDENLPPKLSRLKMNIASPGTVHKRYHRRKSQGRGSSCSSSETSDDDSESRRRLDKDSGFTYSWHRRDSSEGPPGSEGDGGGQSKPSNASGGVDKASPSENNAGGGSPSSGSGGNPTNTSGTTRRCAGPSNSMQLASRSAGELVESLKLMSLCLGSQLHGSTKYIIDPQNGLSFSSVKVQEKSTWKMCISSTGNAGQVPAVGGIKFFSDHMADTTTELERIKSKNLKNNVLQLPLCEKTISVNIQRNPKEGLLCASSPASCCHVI
Procedure, shortened: (§1)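 Each kinase was first exposed to the test compound at 1 uM in DMSO. Signal was then normalised to positive and negative controls to give % control. Finally, any enzyme showing <35% control was judged inhibited.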

[2] = molecular target: T2, scanMAX Kinase assay panel (Homo sapiens, UniProt Q09013); settings: DMPK; 1 uM; read-out: Percent Control (%)
T2 construct: purchased DiscoverX
T2 sequence (Q09013 1-629): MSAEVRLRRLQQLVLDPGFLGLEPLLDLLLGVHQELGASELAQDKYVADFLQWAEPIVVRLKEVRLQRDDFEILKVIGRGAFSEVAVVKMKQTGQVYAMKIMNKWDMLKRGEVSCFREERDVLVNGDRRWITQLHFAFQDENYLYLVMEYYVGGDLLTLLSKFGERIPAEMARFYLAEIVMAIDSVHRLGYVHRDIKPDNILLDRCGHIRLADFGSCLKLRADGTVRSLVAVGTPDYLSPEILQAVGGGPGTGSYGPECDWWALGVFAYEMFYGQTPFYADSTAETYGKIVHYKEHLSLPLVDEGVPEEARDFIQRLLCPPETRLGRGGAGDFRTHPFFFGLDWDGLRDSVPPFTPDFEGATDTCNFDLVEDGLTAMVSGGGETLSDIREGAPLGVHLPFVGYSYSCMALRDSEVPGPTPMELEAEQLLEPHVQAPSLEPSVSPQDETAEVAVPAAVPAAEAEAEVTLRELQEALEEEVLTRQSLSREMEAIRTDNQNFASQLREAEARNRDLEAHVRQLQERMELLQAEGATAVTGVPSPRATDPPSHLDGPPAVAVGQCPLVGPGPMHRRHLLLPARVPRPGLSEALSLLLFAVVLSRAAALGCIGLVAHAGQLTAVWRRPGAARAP
Procedure, shortened: as §1

[3] = molecular target: T3, scanMAX Kinase assay panel (Homo sapiens, UniProt O94806); settings: PRKD3; 1 uM; read-out: Percent Control (%)
T3 construct: purchased DiscoverX
T3 sequence (O94806 1-890): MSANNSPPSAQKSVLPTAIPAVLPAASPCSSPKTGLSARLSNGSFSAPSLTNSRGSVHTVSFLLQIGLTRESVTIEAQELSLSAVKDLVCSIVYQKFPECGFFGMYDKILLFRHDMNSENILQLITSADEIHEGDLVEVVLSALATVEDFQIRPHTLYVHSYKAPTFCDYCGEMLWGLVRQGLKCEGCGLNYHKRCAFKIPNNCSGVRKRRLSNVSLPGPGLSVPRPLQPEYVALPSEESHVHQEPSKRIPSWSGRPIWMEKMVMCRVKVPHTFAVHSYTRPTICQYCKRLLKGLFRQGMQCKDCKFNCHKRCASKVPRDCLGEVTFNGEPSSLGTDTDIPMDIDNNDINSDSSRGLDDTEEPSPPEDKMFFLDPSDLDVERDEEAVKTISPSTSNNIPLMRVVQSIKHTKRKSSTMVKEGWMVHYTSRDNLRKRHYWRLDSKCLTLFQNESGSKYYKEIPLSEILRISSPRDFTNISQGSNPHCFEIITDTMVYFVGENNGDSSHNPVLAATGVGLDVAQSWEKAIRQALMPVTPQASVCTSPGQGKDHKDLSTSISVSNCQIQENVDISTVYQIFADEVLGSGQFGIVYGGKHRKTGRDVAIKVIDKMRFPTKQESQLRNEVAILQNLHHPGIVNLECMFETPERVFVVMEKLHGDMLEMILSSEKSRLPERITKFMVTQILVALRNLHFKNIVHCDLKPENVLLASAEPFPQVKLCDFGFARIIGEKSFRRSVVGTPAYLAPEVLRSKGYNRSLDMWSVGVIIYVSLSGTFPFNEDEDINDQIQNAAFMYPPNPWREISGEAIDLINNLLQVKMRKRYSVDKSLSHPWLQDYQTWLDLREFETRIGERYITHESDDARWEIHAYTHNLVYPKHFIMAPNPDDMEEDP
Procedure, shortened: as §1

[4] = molecular target: T4, scanMAX Kinase assay panel (Homo sapiens, UniProt P00519, F317I); settings: 1 uM, read-out: Percent Control (%)
T4 construct: purchased DiscoverX
Procedure, shortened: as §1

[5] = molecular target: T5, scanMAX Kinase assay panel (Homo sapiens, UniProt P21802); settings: FGFR2; 1 uM; read-out: Percent Control (%)
T5 construct: purchased DiscoverX
Procedure, shortened: as §1

T5 sequence (P21802 22-821): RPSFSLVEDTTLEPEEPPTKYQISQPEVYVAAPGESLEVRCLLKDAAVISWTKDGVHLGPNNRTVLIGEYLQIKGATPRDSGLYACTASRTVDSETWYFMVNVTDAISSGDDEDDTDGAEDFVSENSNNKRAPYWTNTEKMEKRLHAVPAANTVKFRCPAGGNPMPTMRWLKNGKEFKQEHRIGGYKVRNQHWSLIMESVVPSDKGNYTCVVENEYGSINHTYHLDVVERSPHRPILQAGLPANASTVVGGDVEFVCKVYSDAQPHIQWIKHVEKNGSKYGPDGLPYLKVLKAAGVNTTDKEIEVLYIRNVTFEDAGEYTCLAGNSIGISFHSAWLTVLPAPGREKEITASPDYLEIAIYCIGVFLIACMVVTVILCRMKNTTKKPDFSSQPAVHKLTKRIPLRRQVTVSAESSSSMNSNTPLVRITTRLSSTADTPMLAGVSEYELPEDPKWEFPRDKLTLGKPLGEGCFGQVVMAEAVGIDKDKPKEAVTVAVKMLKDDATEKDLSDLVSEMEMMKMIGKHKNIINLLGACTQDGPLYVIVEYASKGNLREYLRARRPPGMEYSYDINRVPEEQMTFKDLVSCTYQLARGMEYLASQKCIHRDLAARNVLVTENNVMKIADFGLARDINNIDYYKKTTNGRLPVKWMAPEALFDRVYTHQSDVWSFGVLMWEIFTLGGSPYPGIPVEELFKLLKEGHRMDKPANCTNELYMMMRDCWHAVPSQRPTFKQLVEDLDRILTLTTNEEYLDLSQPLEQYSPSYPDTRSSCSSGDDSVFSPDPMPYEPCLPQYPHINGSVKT
T4 sequence (P00519 whole entry F317I): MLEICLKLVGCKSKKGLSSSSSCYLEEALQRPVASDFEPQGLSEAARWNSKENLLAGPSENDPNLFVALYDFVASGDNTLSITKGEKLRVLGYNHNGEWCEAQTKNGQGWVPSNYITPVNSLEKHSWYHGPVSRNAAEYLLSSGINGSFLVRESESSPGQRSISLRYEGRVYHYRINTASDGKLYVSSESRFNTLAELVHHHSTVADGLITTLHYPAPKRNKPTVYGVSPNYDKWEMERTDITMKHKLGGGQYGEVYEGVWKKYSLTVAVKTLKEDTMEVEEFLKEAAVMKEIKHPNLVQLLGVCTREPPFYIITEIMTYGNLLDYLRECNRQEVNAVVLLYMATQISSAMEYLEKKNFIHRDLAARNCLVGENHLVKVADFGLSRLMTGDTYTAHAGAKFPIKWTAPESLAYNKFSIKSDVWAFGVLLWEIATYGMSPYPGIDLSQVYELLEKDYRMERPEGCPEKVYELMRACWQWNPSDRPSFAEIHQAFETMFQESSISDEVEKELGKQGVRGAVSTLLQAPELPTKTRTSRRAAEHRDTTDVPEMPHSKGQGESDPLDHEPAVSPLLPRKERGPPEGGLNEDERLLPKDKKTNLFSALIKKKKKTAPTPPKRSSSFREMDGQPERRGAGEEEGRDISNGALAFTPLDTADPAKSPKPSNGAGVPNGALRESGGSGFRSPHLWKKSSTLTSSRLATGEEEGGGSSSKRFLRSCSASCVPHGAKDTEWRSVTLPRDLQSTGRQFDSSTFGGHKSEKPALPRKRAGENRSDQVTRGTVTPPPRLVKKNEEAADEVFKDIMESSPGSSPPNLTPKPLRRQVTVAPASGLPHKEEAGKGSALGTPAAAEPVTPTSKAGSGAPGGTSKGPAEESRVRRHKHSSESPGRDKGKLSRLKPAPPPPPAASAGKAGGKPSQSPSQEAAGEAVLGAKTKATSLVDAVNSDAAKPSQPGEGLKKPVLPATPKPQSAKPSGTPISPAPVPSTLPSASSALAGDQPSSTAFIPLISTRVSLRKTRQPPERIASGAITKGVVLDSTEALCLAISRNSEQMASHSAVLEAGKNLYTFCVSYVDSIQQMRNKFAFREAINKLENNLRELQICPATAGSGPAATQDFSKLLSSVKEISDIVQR

| SMILES | remaining binding at 1 µM [1] [%] | remaining binding at 1 µM [2] [%] | remaining binding at 1 µM [3] [%] | remaining binding at 1 µM ([4]; ABL1 (F317I)-nonphosphorylated) [%] | remaining binding at 1 µM ([4]; ABL1 (F317I)-phosphorylated) [%] | remaining binding at 1 µM [5] [%] |
| --- | --- | --- | --- | --- | --- | --- |
| Cc1ccc(NC(=O)C2(C(=O)Nc3ccc(F)cc3)CC2)cc1C#Cc1cnc2c(Nc3cnn(C(C)C)c3)cccn12 [Example 78] | 95 | 92 | 88 | 36 | 72 | 100 |
| Cc1cn(-c2cc(NC(=O)c3ccc(C)c(C#Cc4cnc5c(Nc6cnn(C)c6)cccn45)c3)cc(C(F)(F)F)c2)cn1 [Example 12, 4-methyl-N-(3-(4-methyl-1H-imidazol-1-yl)-5-(trifluoromethyl)phenyl)-3-((8-((1-methyl-1H-pyrazol-4-yl)amino)imidazo[1,2-a]pyridin-3-yl)ethynyl)benzamide] | 100 | 96 | 96 | 10 | 28 | 11 |
| Cc1ccc(C(=O)Nc2ccc(CN3CCN(C)CC3)c(C(F)(F)F)c2)cc1C#Cc1cnc2c(Nc3cnn(C)c3)cccn12 [Example 1, 4-methyl-3-((8-((1-methyl-1H-pyrazol-4-yl)amino)imidazo[1,2-a]pyridin-3-yl)ethynyl)-N-(4-((4-methylpiperazin-1-yl)methyl)-3-(trifluoromethyl)phenyl)benzamide] | 84 | 100 | 43 | 1 | 3 | 2 |
